# Source: PubChem BioAssay AID1963827 (Molecular Pharmacology Branch, DTP, NCI, 2024)
# Test system: 994946-033-R-J1-PDC complex spheroid viability
# Assay: Anticancer human tumor 994946-033-R-J1-PDC patient-derived melanoma cell line growth inhibition [POLQ]
# Settings: for IC50: curve of first compound; for viability, T/C: stronger effect = lower value
# Description: Multicellular complex tumor spheroid response to Polymerase (POL) inhibitors (novobiocin, ART-558, RP6685) in combination with a variety of drugs and investigational agents in selected tumor cell lines
# The POL inhibitors (novobiocin, ART-558, and RP6685) were evaluated both individually and in combination with standard of care and investigational anticancer small molecules within a complex spheroid model of solid tumors. . Complex spheroids include a stromal component modeled by human endothelial cells (HUVEC) and fibroblasts modeled by human mesenchymal stem cells (MSCs). The concentration ranges selected for each drug and investigational agent were based upon clinically achievable concentrations if the clinical Cmax of the agent was known.
# Compounds. The drugs and investigational agents: novobiocin (NSC847541), ART-558 (NSC835418), RP-6685 (NSC848927), peposertib (NSC802822), ceralasertib (NSC780249), elimusertib (NSC800525), camonsertib (NSC841442), AZD-1390 (NSC803789), olaparib (NSC753686), talazoparib (NSC767125), rucaparib (NSC756644), sotorasib (NSC818433), MRTX-1133 (NSC836407), SN-38 (NSC673596), topotecan (NSC609699), epotoside (NSC141540), doxorubicin (NSC123127), gemcitabine (NSC613327), 5-fluorouracil (NSC19893), paclitaxel (NSC125973), vemurafenib (NSC761431), MSA-2 (NSC828583), SN-011 (NSC837082), adavosertib (NSC754352), prexasertib (NSC758257), carboplatin (NSC241240) and oxaliplatin (NSC266046), were obtained from the National Cancer Institute (NCI) Developmental Therapeutics Program Chemical Repository (21). The FDA-approved anticancer drug set is available from the Developmental Therapeutics Program at https://dtp.cancer.gov/organization/dscb/obtaining/. […] The stock solutions were prepared in dimethyl sulfoxide (DMSO, Sigma-Aldrich, St. Louis, MO, cat. D2650), except for the platinum compounds which were prepared in saline (Quality Biological, Gaithersburg, MD, cat. 114-055-101), at 800-fold the tested concentration and stored at -70 degrees C prior to their use. All drugs and investigational agents were tested over a range starting from a high concentration at or near the clinical Cmax and decreasing in half-log increments. If the clinical Cmax for an agent had not been determined, the highest concentration tested was 10 microM, except for SN-38, which was tested at a high concentration of 1 microM.
# Cell Culture. All cells were maintained in an incubator at 37 degrees C and 5% CO2 with 95% humidity. The PDC lines were cultured according to standard operating procedures established by the NCI PDMR (https://pdmr.cancer.gov). Table 3 of the manuscript, lists the cell lines along with the number of the three cell types plated to form the mct-spheroids and media for tumor cell growth. After thawing, all PDC lines, except 997537-175-T-J1-PDC and 415267-285-R-J2-PDC, were cultured in Matrigel-coated flasks prepared with a working solution of 1X Ham's F-12 nutrient mix, without supplementation (Thermo Fisher Scientific, cat. 11765054), 100 U/mL penicillin-streptomycin (Thermo Fisher Scientific, cat. 15140122), and 2.5% Matrigel (Corning Inc., Corning, NY, cat. 354248) for the first three passages. The two PDC lines 997537-175-T-J1-PDC and 415267-285-R-J2-PDC were cultured on uncoated flasks. The 857933-349-R-J2-PDC line was cultured in 6C/Colon 1B media containing advanced DMEM/F-12 (Thermo Fisher Scientific, cat. 12634028), 10 mM HEPES (Thermo Fisher Scientific, cat. 15630080), 1X GlutaMAX supplement (Thermo Fisher Scientific, cat. 35050061), 0.1 mg/mL primocin (InvivoGen, San Diego, CA, cat. ant-pm-2), 10% defined fetal bovine serum, heat inactivated (HyClone Laboratories Inc., Logan, UT, cat. SH30070.03HI), 50% L-WRN conditioned media (ATCC, cat. CRL-3276), 1.25 mM N-Acetyl-L-cysteine (Sigma-Aldrich, cat. A9165), 10 mM nicotinamide (Sigma-Aldrich, cat. N0636), 1X B-27 supplement (Thermo Fisher Scientific, cat. 17504044), 1X N-2 supplement (Thermo Fisher Scientific, cat. […]
# [1] = second compound 0.0316 µM, first compound 0.0316 µM
# [2] = second compound 0.0316 µM, first compound 0.1 µM
# [3] = second compound 0.0316 µM, first compound 0.316 µM
# [4] = second compound 0.0316 µM, first compound 1 µM
# [5] = second compound 0.0316 µM, first compound 3.16 µM
# [6] = second compound 0.0316 µM, first compound 10 µM
# [7] = second compound 0.1 µM, first compound 0.0316 µM
# [8] = second compound 0.1 µM, first compound 0.1 µM
# [9] = second compound 0.1 µM, first compound 0.316 µM
# [10] = second compound 0.1 µM, first compound 1 µM
# [11] = second compound 0.1 µM, first compound 3.16 µM
# [12] = second compound 0.1 µM, first compound 10 µM
# [13] = second compound 0.316 µM, first compound 0.0316 µM
# [14] = second compound 0.316 µM, first compound 0.1 µM
# [15] = second compound 0.316 µM, first compound 0.316 µM
# [16] = second compound 0.316 µM, first compound 1 µM
# [17] = second compound 0.316 µM, first compound 3.16 µM
# [18] = second compound 0.316 µM, first compound 10 µM
# [19] = second compound 1 µM, first compound 0.0316 µM
# [20] = second compound 1 µM, first compound 0.1 µM
# [21] = second compound 1 µM, first compound 0.316 µM
# [22] = second compound 1 µM, first compound 1 µM
# [23] = second compound 1 µM, first compound 3.16 µM
# [24] = second compound 1 µM, first compound 10 µM
# [25] = second compound 3.16 µM, first compound 0.0316 µM
# [26] = second compound 3.16 µM, first compound 0.1 µM
# [27] = second compound 3.16 µM, first compound 0.316 µM
# [28] = second compound 3.16 µM, first compound 1 µM
# [29] = second compound 3.16 µM, first compound 3.16 µM
# [30] = second compound 3.16 µM, first compound 10 µM
# [31] = second compound 10 µM, first compound 0.0316 µM
# [32] = second compound 10 µM, first compound 0.1 µM
# [33] = second compound 10 µM, first compound 0.316 µM
# [34] = second compound 10 µM, first compound 1 µM
# [35] = second compound 10 µM, first compound 3.16 µM
# [36] = second compound 10 µM, first compound 10 µM
# 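Further: spheroids exposed to drugs for 7 days.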
# 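Wherever viability, T/C is given: 100% = DMSO vehicle treated spheroids.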
structure (smiles),measurement,setting,value
Nc1ccn(C2OC(CO)C(O)C2(F)F)c(=O)n1 (centres undefined) + COC1C(OC(N)=O)C(O)C(Oc2ccc3c(O)c(NC(=O)c4ccc(O)c(CC=C(C)C)c4)c(=O)oc3c2C)OC1(C)C,IC50,second compound 0.0316 µM,< 31.6 nM
same,IC50,second compound 0.1 µM,< 31.6 nM
same,IC50,second compound 0.316 µM,< 31.6 nM
same,IC50,second compound 1 µM,< 31.6 nM
same,IC50,second compound 3.16 µM,35.4 nM
same,IC50,second compound 10 µM,< 31.6 nM
same,"viability, T/C",[1],24.4%
same,"viability, T/C",[2],9.96%
same,"viability, T/C",[3],7.61%
same,"viability, T/C",[4],7.06%
same,"viability, T/C",[5],5.98%
same,"viability, T/C",[6],1.31%
same,"viability, T/C",[7],30.7%
same,"viability, T/C",[8],9.93%
same,"viability, T/C",[9],5.26%
same,"viability, T/C",[10],7.92%
same,"viability, T/C",[11],7.09%
same,"viability, T/C",[12],2.72%
same,"viability, T/C",[13],26.8%
same,"viability, T/C",[14],7.23%
same,"viability, T/C",[15],6.54%
same,"viability, T/C",[16],6.27%
same,"viability, T/C",[17],6.01%
same,"viability, T/C",[18],3.92%
same,"viability, T/C",[19],28.8%
same,"viability, T/C",[20],4.66%
same,"viability, T/C",[21],7.79%
same,"viability, T/C",[22],8.09%
same,"viability, T/C",[23],5.28%
same,"viability, T/C",[24],2.12%
same,"viability, T/C",[25],54.6%
same,"viability, T/C",[26],7.74%
same,"viability, T/C",[27],6.32%
same,"viability, T/C",[28],6%
same,"viability, T/C",[29],4.45%
same,"viability, T/C",[30],1.73%
same,"viability, T/C",[31],19.9%
same,"viability, T/C",[32],7.37%
same,"viability, T/C",[33],6.97%
same,"viability, T/C",[34],6.33%
same,"viability, T/C",[35],4.89%
same,"viability, T/C",[36],2.82%
COc1cc(C2c3cc4c(cc3C(OC3OC5COC(C)OC5C(O)C3O)C3COC(=O)C23)OCO4)cc(OC)c1O (centres undefined) + Nc1ccc(C#CCN(C(=O)Cc2ncc(C(F)(F)F)cc2C(F)(F)F)c2ccc(F)cc2)nn1,IC50,second compound 0.0316 µM,725 nM
same,IC50,second compound 0.1 µM,348 nM
same,IC50,second compound 0.316 µM,363 nM
same,IC50,second compound 1 µM,395 nM
same,IC50,second compound 3.16 µM,369 nM
same,IC50,second compound 10 µM,879 nM
same,"viability, T/C",[1],70.3%
same,"viability, T/C",[2],67.4%
same,"viability, T/C",[3],68.8%
same,"viability, T/C",[4],42%
same,"viability, T/C",[5],19.9%
same,"viability, T/C",[6],8.78%
same,"viability, T/C",[7],86.1%
same,"viability, T/C",[8],73.3%
same,"viability, T/C",[9],42.3%
same,"viability, T/C",[10],43%
same,"viability, T/C",[11],16.5%
same,"viability, T/C",[12],6.05%
same,"viability, T/C",[13],87.1%
same,"viability, T/C",[14],69.9%
same,"viability, T/C",[15],54%
same,"viability, T/C",[16],32.4%
same,"viability, T/C",[17],20.6%
same,"viability, T/C",[18],9.78%
same,"viability, T/C",[19],111%
same,"viability, T/C",[20],77%
same,"viability, T/C",[21],55.1%
same,"viability, T/C",[22],35.4%
same,"viability, T/C",[23],17.9%
same,"viability, T/C",[24],10.3%
same,"viability, T/C",[25],84.8%
same,"viability, T/C",[26],70.5%
same,"viability, T/C",[27],48%
same,"viability, T/C",[28],41.3%
same,"viability, T/C",[29],15.3%
same,"viability, T/C",[30],5.78%
same,"viability, T/C",[31],77.2%
same,"viability, T/C",[32],70.4%
same,"viability, T/C",[33],58.7%
same,"viability, T/C",[34],53.3%
same,"viability, T/C",[35],14.5%
same,"viability, T/C",[36],7.34%
